Data from patent publication US11766422B2, “Galloylated procyanidins for treating endovascular dysfunction and increasing blood flow” (UNIVERSITY OF SOUTH FLORIDA, priority 2018, dated 2023).
Read-outs that look alike come from different tables or passages of the source.

Tests used:
[1] = tested on: RAW264.7 mouse cells; experiment: Nitric Oxide Assay (DAF-FM fluorescence, confocal microscopy); type: cell-based
Description: Drug Preparation. […] The current formulation, L-arginine (COMPOUND SOLUTIONS) and L-citrulline DL-malate 2:1 (COMPOUND SOLUTIONS) were each prepared at 300 mg/ml in DMEM without phenol red (CORNING) and stored at −20° C. until use. Arginine silicate and lipopolysaccharides from E. coli 0111: B4 (LPS; SIGMA ALDRICH) were dissolved in DMSO to 300 mg/ml and 50 μg/ml, respectively, and stored frozen until use. 4,5-Diaminofluorescein Diacetate (DAF-FM) was diluted from 5 mM stocks in DMSO.
Cell Culture. […] All experiments were completed with cultures under 8 passages, and cell densities were maintained between 0.2×10^6 and 0.8×10^6 cells per ml during maintenance.
Cells were triturated with complete growth medium. Density was determined under phase-contrast using 0.2% Trypan blue. Three viable cell counts were performed on the hemocytometer and averaged.
Nitric Oxide Assay. […] DAF-FM diacetate is essentially non-fluorescent until it reacts with nitric oxide to form a fluorescent benzotriazole. DAF-FM diacetate is cell-permeant and passively diffuses across cellular membranes. Once inside cells, it is deacetylated by intracellular esterases to become DAF-FM.
Here, cells (50,000) in 3 ml of complete growth medium were plated onto 35-mm glass bottom dishes (MATTEK) pre-coated with poly-D-lysine. Cells were grown for 24 h and washed twice in HBS. Three (3) ml of serum-free medium was added. Cells were then treated with 1 μM lipopolysaccharide or various concentrations of test agents and grown for an additional 30 min. DAF-FM was added to cells to a final concentration of 2 μM and incubated for an additional 30 min.
For confocal microscopy, medium was removed, and cells were washed once in HBS and replaced with 3 ml Live Cell Imaging solution (INVITROGEN). […] For cell treatments resulting in little or no fluorescence, 4′,6-diamidino-2-phenylindole (DAPI, MOLECULAR PROBES) was added at a final concentration of 300 nM to an additional sample. Images were captured and analyzed as tiff formatted files. […] For determining fluorescence, the entire image was analyzed for each image taken.

[2] = tested on: heme oxygenase 1 in RAW264, 7 cells; settings: galloyl-derivative compared to non-galloylated parent molecule; cited from earlier work
[3] = tested on: HUVEC; settings: cited from earlier work
[4] = target: T1, pancreatic lipase (Homo sapiens, UniProt P16233); settings: Control: Untreated enzyme; cited from earlier work
T1 sequence (P16233 17-465): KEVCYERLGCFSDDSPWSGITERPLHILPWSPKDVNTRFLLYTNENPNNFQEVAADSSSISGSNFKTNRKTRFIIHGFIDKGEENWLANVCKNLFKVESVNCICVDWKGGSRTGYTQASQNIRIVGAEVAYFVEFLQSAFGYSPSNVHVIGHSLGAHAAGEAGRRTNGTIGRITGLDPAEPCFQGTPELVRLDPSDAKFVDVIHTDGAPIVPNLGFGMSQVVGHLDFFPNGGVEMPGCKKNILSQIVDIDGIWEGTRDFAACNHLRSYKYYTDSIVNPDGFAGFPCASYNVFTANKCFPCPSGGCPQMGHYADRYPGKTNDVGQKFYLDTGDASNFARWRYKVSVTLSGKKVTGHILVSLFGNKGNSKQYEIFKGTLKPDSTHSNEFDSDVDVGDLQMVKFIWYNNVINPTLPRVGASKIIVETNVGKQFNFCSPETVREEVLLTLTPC

[5] = tested on: S-G cells (immortalized gum epithelial cells); settings: cited from earlier work
[6] = tested on: NA+/K+ ATPase pump; settings: Control: Untreated pump; cited from earlier work
[7] = target: fatty acid synthase (Homo sapiens, UniProt P49327); settings: Control: Untreated enzyme; cited from earlier work
[8] = tested on: human umbilical vein endothelial cells (HUVEC); settings: galloyl-derivative compared to non-galloylated parent molecule; cited from earlier work
[9] = tested on: HUVEC; settings: Control: Untreated cells; cited from earlier work
[10] = tested on: NA/H exchanger; settings: Control: Untreated exchanger; cited from earlier work
[11] = target: type 1 ryanodine receptor (Homo sapiens, UniProt P21817); settings: Control: Untreated receptor; cited from earlier work
[12] = Control: C, EC; cited from earlier work
[13] = tested on: fatty acid synthase expression, MCF-7 cells; settings: Control: Untreated cells; cited from earlier work
[14] = tested on: HL-60 cells; settings: Control: Untreated cells; cited from earlier work
[15] = target: T2, rat liver microsomal 5α-reductase (Rattus norvegicus, UniProt P24008); settings: cited from earlier work
T2 sequence (P24008 1-259): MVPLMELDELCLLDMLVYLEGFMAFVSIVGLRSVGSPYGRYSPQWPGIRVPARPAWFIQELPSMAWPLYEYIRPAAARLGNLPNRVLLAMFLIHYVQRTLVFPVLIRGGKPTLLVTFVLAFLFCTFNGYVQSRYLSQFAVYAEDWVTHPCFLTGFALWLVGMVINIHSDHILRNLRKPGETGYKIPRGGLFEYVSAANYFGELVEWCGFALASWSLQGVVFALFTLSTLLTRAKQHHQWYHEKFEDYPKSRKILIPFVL

[16] = tested on: HL-60 cells; settings: Control: Untreated cells; cited from earlier work; remark: listed apart in the source
[17] = tested on: LNCaP and DU145 cells; settings: Control: Untreated cells; cited from earlier work
[18] = tested on: erythrocytes; settings: Control: Untreated erythrocytes; cited from earlier work
[19] = tested on: K562 cells; settings: cited from earlier work
[20] = tested on: MCF-7 and MDA-MB231 cells; settings: Control: Untreated cells; cited from earlier work

Chain of fatty acid synthase (P49327 whole entry, species assumed): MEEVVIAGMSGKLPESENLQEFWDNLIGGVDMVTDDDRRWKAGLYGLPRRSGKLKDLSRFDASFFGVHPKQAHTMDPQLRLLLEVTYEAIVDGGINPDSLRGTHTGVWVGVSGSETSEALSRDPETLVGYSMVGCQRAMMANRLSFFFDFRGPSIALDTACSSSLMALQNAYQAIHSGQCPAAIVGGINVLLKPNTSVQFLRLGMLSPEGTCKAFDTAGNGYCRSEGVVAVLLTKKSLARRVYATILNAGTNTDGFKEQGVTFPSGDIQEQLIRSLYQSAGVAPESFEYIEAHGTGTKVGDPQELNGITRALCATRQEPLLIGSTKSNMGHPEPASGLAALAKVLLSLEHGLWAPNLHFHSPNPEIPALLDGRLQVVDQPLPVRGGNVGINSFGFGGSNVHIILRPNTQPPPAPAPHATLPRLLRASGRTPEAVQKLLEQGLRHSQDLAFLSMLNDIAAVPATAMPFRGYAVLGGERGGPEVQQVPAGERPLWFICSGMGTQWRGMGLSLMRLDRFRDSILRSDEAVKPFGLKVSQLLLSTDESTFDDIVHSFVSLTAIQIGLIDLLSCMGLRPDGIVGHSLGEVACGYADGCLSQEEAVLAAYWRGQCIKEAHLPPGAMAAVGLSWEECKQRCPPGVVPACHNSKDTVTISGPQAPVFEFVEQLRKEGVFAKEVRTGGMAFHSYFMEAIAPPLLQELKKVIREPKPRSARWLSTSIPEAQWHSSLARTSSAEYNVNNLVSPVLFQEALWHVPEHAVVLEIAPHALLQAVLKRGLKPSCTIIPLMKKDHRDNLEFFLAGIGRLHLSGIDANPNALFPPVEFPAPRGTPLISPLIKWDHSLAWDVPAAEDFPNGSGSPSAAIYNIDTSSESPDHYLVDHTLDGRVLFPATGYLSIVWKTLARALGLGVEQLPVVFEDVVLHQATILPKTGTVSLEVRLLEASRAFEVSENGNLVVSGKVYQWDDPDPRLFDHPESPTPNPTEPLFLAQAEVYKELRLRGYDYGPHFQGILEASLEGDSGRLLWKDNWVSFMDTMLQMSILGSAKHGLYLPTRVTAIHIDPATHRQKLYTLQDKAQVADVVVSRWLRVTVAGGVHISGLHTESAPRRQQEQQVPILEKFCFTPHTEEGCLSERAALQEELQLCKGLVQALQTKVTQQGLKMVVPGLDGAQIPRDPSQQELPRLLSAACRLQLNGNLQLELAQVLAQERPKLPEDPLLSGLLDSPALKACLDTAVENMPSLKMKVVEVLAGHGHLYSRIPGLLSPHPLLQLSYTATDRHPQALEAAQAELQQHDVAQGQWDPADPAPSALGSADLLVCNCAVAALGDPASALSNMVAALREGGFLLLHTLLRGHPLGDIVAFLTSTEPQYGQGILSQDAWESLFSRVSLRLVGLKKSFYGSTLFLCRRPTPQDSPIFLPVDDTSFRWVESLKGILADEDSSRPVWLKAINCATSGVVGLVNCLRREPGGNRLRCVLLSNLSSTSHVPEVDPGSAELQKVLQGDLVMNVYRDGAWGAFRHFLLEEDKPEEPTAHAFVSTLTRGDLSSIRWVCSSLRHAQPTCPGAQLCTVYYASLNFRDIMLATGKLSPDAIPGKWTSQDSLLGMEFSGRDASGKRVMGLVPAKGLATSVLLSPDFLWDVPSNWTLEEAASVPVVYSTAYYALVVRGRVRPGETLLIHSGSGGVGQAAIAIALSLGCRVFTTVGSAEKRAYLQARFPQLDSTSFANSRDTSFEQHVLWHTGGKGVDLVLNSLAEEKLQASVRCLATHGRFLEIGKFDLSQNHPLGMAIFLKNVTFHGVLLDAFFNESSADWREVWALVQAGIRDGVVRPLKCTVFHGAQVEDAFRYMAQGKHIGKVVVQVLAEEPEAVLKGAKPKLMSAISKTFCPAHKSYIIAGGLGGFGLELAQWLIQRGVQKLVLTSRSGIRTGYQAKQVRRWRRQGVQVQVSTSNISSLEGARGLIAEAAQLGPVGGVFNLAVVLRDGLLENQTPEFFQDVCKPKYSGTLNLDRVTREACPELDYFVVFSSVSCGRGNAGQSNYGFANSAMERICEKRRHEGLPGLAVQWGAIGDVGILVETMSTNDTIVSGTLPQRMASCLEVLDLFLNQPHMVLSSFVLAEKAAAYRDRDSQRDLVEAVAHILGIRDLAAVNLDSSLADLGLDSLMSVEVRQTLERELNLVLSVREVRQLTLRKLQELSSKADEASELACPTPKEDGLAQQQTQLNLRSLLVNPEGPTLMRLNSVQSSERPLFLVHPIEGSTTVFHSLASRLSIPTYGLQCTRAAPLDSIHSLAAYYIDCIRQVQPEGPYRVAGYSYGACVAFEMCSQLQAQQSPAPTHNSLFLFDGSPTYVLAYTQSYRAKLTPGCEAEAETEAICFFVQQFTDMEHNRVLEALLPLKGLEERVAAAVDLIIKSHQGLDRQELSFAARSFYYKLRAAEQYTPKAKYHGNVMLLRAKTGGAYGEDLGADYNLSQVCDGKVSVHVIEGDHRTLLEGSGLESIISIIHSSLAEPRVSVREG

## NC(=O)NCCC[C@H](N)C(=O)O.NC(=O)NCCC[C@H](N)C(=O)O.O=C(O)CC(O)C(=O)O (racemic) [L-citrulline-DL-malate 2:1, L-citrulline DL-malate 2:1]
[1]; RAW264.7 cells, 600 μg/ml samples
  mean fluorescence (DAF-FM): noticeably low mean fluorescence

## O=C(Oc1c(-c2ccc(O)c(O)c2)oc2cc(O)cc(O)c2c1=O)c1cc(O)c(O)c(O)c1 [3GQ]
[2]
  Effect: Induction of heme oxygenase 1 in RAW264, 7 cells: ↓↓
[3]
  Effect: Cytotoxicity, inhibition of proliferation, migration and tube formation of HUVEC: ↑↑

## O=C(Oc1cc(O)c2c(c1)O[C@H](c1ccc(O)c(O)c1)[C@@H](O)C2=O)c1cc(O)c(O)c(O)c1 [7GT]
[2]
  Effect: Induction of heme oxygenase 1 in RAW264, 7 cells: ↑↑↑
[3]
  Effect: Cytotoxicity, inhibition of proliferation, migration and tube formation of HUVEC: ↑↑

## O=C(O[C@H]1Cc2c(O)cc(O)cc2O[C@@H]1c1ccc(O)c(O)c1)c1cc(O)c(O)c(O)c1 [CG]
[4]
  Effect: Reduction of pancreatic lipase activity in vitro: ↑↑↑
[5]; Control: Untreated cells
  Effect: Cytotoxicity towards S-G cells (immortalized gum epithelial cells): ↑↑↑

## Oc1cc(O)c2c(c1)O[C@H](c1ccc(O)c(O)c1)[C@H](O)C2 [EC, epicatechin]
[5]
  Effect: Cytotoxicity towards S-G cells (immortalized gum epithelial cells): ↑

## O=C(O[C@@H]1Cc2c(O)cc(O)cc2O[C@@H]1c1ccc(O)c(O)c1)c1cc(O)c(O)c(O)c1 [ECG, Epicatechin gallate]
[4]
  Effect: Reduction of pancreatic lipase activity in vitro: ↑↑
[6]
  Effect: Inhibition of NA+/K+ ATPase pump activity: ↑↑
[7]
  Effect: Inhibition of fatty acid synthase activity: ↑↑↑
[5]; Control: Untreated cells
  Effect: Cytotoxicity towards S-G cells (immortalized gum epithelial cells): ↑↑↑
[8]
  Effect: Inhibition of VEGF-induced proliferation migration and tube formation of human umbilical vein endothelial cells (HUVEC): ↑^c
[9]
  Effect: Inhibition of VEGF-induced proliferation of HUVEC: ↑↑
[10]
  Effect: Inhibition of NA/H exchanger activity: ↑↑
[11]
  Effect: Activiation of type 1 ryanodine receptor: ↑↑↑

## O=C(O[C@@H]1Cc2c(O)cc(O)cc2O[C@@H]1c1cc(O)c(O)c(O)c1)c1cc(O)c(O)c(O)c1 [EGCG, epigallocatechin gallate]
[4]
  Effect: Reduction of pancreatic lipase activity in vitro: ↑↑
[6]
  Effect: Inhibition of NA+/K+ ATPase pump activity: ↑↑
[7]
  Effect: Inhibition of fatty acid synthase activity: ↑↑↑
[12]
  Effect: Trolox-equivalent antioxidant activity: ↑↑
[5]
  Effect: Cytotoxicity towards S-G cells (immortalized gum epithelial cells): ↑↑↑
[13]
  Effect: Suppression of fatty acid synthase expression n MCF-7 cells: ↑↑↑
[14]
  Effect: Reduction of cell viability in HL-60 cells: ↑↑
[15]; Control: Untreated enzyme
  Effect: Inhibition of rat liver microsomal 5α-reductase: ↑
[9]
  Effect: Inhibition of VEGF-induced proliferation of HUVEC: ↑↑
[3]; galloyl-derivative compared to non-galloylated parent molecule
  Effect: Cytotoxicity, inhibition of proliferation, migration and tube formation of HUVEC: ↑↑^c
[10]
  Effect: Inhibition of NA/H exchanger activity: ↑
[11]
  Effect: Activiation of type 1 ryanodine receptor: ↑↑↑

## Oc1cc(O)c2c(c1)O[C@H](c1cc(O)c(O)c(O)c1)[C@H](O)C2 [EGC]
[6]
  Effect: Inhibition of NA+/K+ ATPase pump activity: ↑
[7]
  Effect: Inhibition of fatty acid synthase activity: ↑
[5]; Control: Untreated cells
  Effect: Cytotoxicity towards S-G cells (immortalized gum epithelial cells): ↑↑
[13]
  Effect: Suppression of fatty acid synthase expression n MCF-7 cells: •
[9]
  Effect: Inhibition of VEGF-induced proliferation of HUVEC: ↑
[10]
  Effect: Inhibition of NA/H exchanger activity: ↑↑↑
[11]
  Effect: Activiation of type 1 ryanodine receptor: ↑

## O=C(O)c1cc(O)c(O)c(O)c1 [GA, gallic acid]
[7]
  Effect: Inhibition of fatty acid synthase activity: ↑
[16]
  Effect: Induction of apoptosis in HL-60 cells: ↑↑

## O=C(O[C@@H]1Cc2c(O)cc(O)cc2O[C@H]1c1cc(O)c(O)c(O)c1)c1cc(O)c(O)c(O)c1 [GCG]
[4]
  Effect: Reduction of pancreatic lipase activity in vitro: ↑↑↑

## N=C(N)NCCC[C@H](N)C(=O)O [L-arginine]
[1]
  mean fluorescence (DAF-FM): noticeably low mean fluorescence

## O=C(OC[C@H]1O[C@@H](OC(=O)c2cc(O)c(O)c(O)c2)[C@H](OC(=O)c2cc(O)c(O)c(O)c2)[C@@H](OC(=O)c2cc(O)c(O)c(O)c2)[C@@H]1OC(=O)c1cc(O)c(O)c(O)c1)c1cc(O)c(O)c(O)c1 [PGG]
[17]
  Effect: Inhibitory effects on LNCaP and DU145 cells: ↑↑↑
[18]
  Effect: Triggering of suicidal erythrocyte death: ↑↑
[14]
  Effect: Reduction of cell viability in HL-60 cells: ↑↑↑
[19]
  Effect: Cytotoxicity towards K562 cells: ↑
[15]
  Effect: Inhibition of rat liver microsomal 5α-reductase: ↑↑↑
[20]
  Effect: Growth inhibition of MCF-7 and MDA-MB231 cells: ↑↑↑

## catechin
[7]
  Effect: Inhibition of fatty acid synthase activity: •
[13]
  Effect: Suppression of fatty acid synthase expression n MCF-7 cells: •

## lipopolysaccharides from E. coli 0111: B4 [LPS]
[1]; RAW264.7 cells, 1 ng/ml incubated for 30 minutes
  DAF-FM fluorescence (nitric oxide levels): bright and consistent DAF-FM fluorescence
